Experimental data reported in publication PMC10457740, “Design, Synthesis and Biological Evaluation of Novel PEG-Rakicidin B1 Hybrid as Clostridium difficile (CD) Targeted Anti-Bacterial Agent” (Molecules, 2023).
Structures can show the parent of a compound that is named as a salt. Where two headings read alike, the source gives them in different places.

Tests used:
[1] = test system: PANC-1 cells (zebrafish pancreatic cancer transplant model); experiment: In vivo cytotoxicity, zebrafish pancreatic cancer transplant model; settings: 48 h, n = 10
Caco-2 = experiment: In vitro cytotoxicity, CCK-8 assay, Caco-2; format: cell-based; settings: Homo sapiens, Caco-2, 48 h
PANC-1 = experiment: In vitro cytotoxicity, CCK-8 assay, PANC-1; format: cell-based; settings: Homo sapiens, PANC-1, 48 h
HCT-8 cells = experiment: In vitro cytotoxicity, CCK-8 assay, HCT-8; format: cell-based; settings: Homo sapiens, HCT-8, 48 h
[2] = test system: C. difficile infection (CDI); settings: cited from earlier work; for recurrence of CDI: patients, after treatment; for response in patients: treatment of mild to moderate episodes of CDI
CD strain ATCC 43255 = experiment: CDI mouse model (survival, recurrence, weight, clinical scores)

## C=C1/C=C/C(=O)N(C)CC(=O)N[C@@H]([C@H](O)C(N)=O)C(=O)O[C@@H]([C@H](C)CCCCCCCCCCCC(C)CC)[C@H](C)C(=O)N1 (stereo partly shown) [Rakicidin B1]
[1]; 22.4 nM in water
  Fluorescence Intensity (S, Mean ± SE): 773,141 ± 49,850
[1]; 67.2 nM in water
  Fluorescence Intensity (S, Mean ± SE): 662,225 ± 41,743
[1]; 201.5 nM in water
  Fluorescence Intensity (S, Mean ± SE): 527,824 ± 34,172
[1]; Danio rerio, PANC-1, 22.4 nM in water, read-out: Inhibition Rate (%)
  inhibition at 0.0224 µM: 17%
[1]; Danio rerio, PANC-1, 67.2 nM in water, read-out: Inhibition Rate (%)
  inhibition at 0.0672 µM: 29%
[1]; Danio rerio, PANC-1, 201.5 nM in water, read-out: Inhibition Rate (%)
  inhibition at 0.2015 µM: 43%
Caco-2; read-out: IC50 Caco-2, hypoxia (5% CO2, 95% N2), 48 h, CCK-8
  IC50: 457 nM
Caco-2; read-out: IC50 Caco-2, normoxia, 48 h drug exposure, CCK-8
  IC50: 586 nM
PANC-1; read-out: IC50 PANC-1, hypoxia (5% CO2, 95% N2), 48 h, CCK-8
  IC50: 486 nM
PANC-1; read-out: IC50 PANC-1, normoxia, 48 h drug exposure, CCK-8
  IC50: 815 nM
HCT-8 cells; read-out: IC50 HCT-8, hypoxia (5% CO2, 95% N2), 48 h, CCK-8
  IC50: 430 nM
HCT-8 cells; read-out: IC50 HCT-8, normoxia, 48 h drug exposure, CCK-8
  IC50: 519 nM

## Nc1ccn([C@@H]2O[C@H](CO)[C@@H](O)C2(F)F)c(=O)n1 [gemcitabine hydrochloride]
[1]; 66.7 µM in water
  Fluorescence Intensity (S, Mean ± SE): 540,311 ± 59,245 ^1
[1]; Danio rerio, PANC-1, 66.7 µM in water, read-out: Inhibition Rate (%)
  inhibition at 66.7 µM: 42%

## Cc1ncc([N+](=O)[O-])n1CCO [metronidazole]
[2]
  recurrence of CDI: 25–30%
  response in patients: approximately 90%

## CN[C@H](CC(C)C)C(=O)N[C@H]1C(=O)N[C@@H](CC(N)=O)C(=O)N[C@H]2C(=O)N[C@H]3C(=O)N[C@H](C(=O)N[C@H](C(=O)O)c4cc(O)cc(O)c4-c4cc3ccc4O)[C@H](O)c3ccc(c(Cl)c3)Oc3cc2cc(c3O[C@@H]2O[C@H](CO)[C@@H](O)[C@H](O)[C@H]2O[C@H]2C[C@](C)(N)[C@H](O)[C@H](C)O2)Oc2ccc(cc2Cl)[C@H]1O [vancomycin]
[2]
  recurrence of CDI: 25–30%
  response in patients: approximately 90%
CD strain ATCC 43255; C57BL/6 mice, vancomycin 20 mg/kg once a day for seven days, monitored until day 21
  mortality rate after stopping treatment (recurrence of infection): 40%
CD strain ATCC 43255; infected C57BL/6 mice, after seven-day treatment, until day 21
  body weight changes and clinical scores after stopping treatment: significant weight loss and a sharp increase in clinical scores
CD strain ATCC 43255; infected C57BL/6 mice, during seven-day treatment
  body weight changes and clinical scores while receiving treatment: did not experience weight loss or an increase in clinical scores
CD strain ATCC 43255; infected C57BL/6 mice, monitored until day 21
  recurrence of infection after treatment ended: recurrence of infection is observed
